Results: patent US10519177B2, “Heterocyclic compounds and uses thereof” (Plexxikon Inc., priority 2013, dated 2019)

Experiments:
MV-4-11 cells = assay: Oncology cell growth assay MV-4-11 (CellTiter Glo); type: cell-based; details: Homo sapiens, MV4-11, 72 h; read-out: Cell activity (IC50 μM) MV-4-11 3d-Growth
Outline: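 Growth read by CellTiter Glo luminescence after 72 h compound treatment of MLL-AF4-bearing MV-4-11 cells (3000/well). Titration: 8 points, 1:3 steps, maximum 10 μM, 0.2% DMSO final. Data normalized to DMSO wells, four-parameter fit gives pIC50.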

BRD4-BD12 (1-477) = BRD4-BD12 (1-477) (Homo sapiens (Human), UniProt O60885); assay: Alphascreen binding assay BRD4-BD12; details: BRD4(1 2) H4; read-out: Biochemical activity (IC50 μM) BRD4(1 2) H4
Outline: (§1)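 In this competition format, compounds displace a biotinylated tetra-acetyl H4 peptide from E. coli-expressed human BRD4 bromodomain constructs captured on nickel chelate beads. The reaction runs at pH 7.5 with 2 mM DTT and detergent for 1 h at room temperature before a 30 min bead step.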

bromodomain = assay: at least one of the bromodomain cell assays of Example 57; type: cell-based; details: at least one of the bromodomain cell assays described in Example 57; read-out: IC50 in at least one of the bromodomain cell assays
BRD4-BD1 (44-164) = BRD4-BD1 (44-164) (Homo sapiens (Human), UniProt O60885); assay: Alphascreen binding assay BRD4-BD1; details: BRD4(1) H4; read-out: Biochemical activity (IC50 μM) BRD4(1) H4
Outline: as §1

SMILES	IC50 (MV-4-11 cells)	IC50 (BRD4-BD12 (1-477))	IC50 (bromodomain)	IC50 (BRD4-BD1 (44-164))
Cc1noc(C)c1-c1cnc2c(-c3cnn(C)c3)cn(C(CC#N)C3CC3)c2c1 (centres unmarked) [P-0316, 3-cyclopropyl-3-[6-(3,5-dimethylisoxazol-4-yl)-3-(1-methylpyrazol-4-yl)pyrrolo[3,2-b]pyridin-1-yl]propanenitrile]	< 1 µM	< 1 µM	< 10000 nM	< 1 µM
Cc1noc(C)c1-c1cnc2c(C#CCO)cn(CC3CCC(F)(F)CC3)c2c1 [P-0264, 3-[1-[(4,4-difluorocyclohexyl)methyl]-6-(3,5-dimethylisoxazol-4-yl)pyrrolo[3,2-b]pyridin-3-yl]prop-2-yn-1-ol]	< 1 µM	1 to 10 µM	< 10000 nM	< 1 µM
Cc1noc(C)c1-c1cnc2c(-c3ccc(C(=O)O)cc3)cn(S(=O)(=O)c3ccccc3)c2c1 [P-0371, 4-[1-(benzenesulfonyl)-6-(3,5-dimethylisoxazol-4-yl)pyrrolo[3,2-b]pyridin-3-yl]benzoic acid]	< 1 µM	< 1 µM	< 10000 nM	< 1 µM
Cc1noc(C)c1-c1cnc2c(Cl)cn(CC3CCC(F)(F)CC3)c2c1 [P-0306, 4-[3-chloro-1-[(4,4-difIuorocyclohexyl)methyl]pyrrolo[3,2-b]pyridin-6-yl]-3,5-dimethyl-isoxazole]	< 1 µM	< 1 µM	< 10000 nM	< 1 µM
C#Cc1cn(C(C)c2ccccc2)c2cc(-c3c(C)noc3C)cnc12 (centres unmarked) [P-0289, 4-[3-ethynyl-1-(1-phenylethyl)pyrrolo[3,2-b]pyridin-6-yl]-3,5-dimethyl-isoxazole]	< 1 µM	< 1 µM	< 10000 nM	< 1 µM
Cc1noc(C)c1-c1cnc2c(Cl)cn(C(CC#N)C3CC3)c2c1 (centres unmarked) [P-0307, 3-[3-chloro-6-(3,5-dimethylisoxazol-4-yl)pyrrolo[3,2-b]pyridin-1-yl]-3-cyclopropyl-propanenitrile]	1 to 10 µM	< 1 µM	< 10000 nM	< 1 µM
Cc1noc(C)c1-c1cnc2c(-c3cnn(CC(F)(F)F)c3)cn(CC3CC(F)(F)C3)c2c1 [P-0305, 4-[1-[(3,3-difluorocyclobutyl)methyl]-3-[1-(2,2,2-trifluoroethyl)pyrazol-4-yl]pyrrolo[3,2-b]pyridin-6-yl]-3,5-dimethyl-isoxazole]	< 1 µM	< 1 µM	< 10000 nM	< 1 µM
Cc1noc(C)c1-c1cnc2c(-c3cnco3)cn(C(C)c3ccccc3)c2c1 (centres unmarked) [P-0301, 3,5-dimethyl-4-[3-oxazol-5-yl-1-(1-phenylethyl)pyrrolo[3,2-b]pyridin-6-yl]isoxazole]	< 1 µM	< 1 µM	< 10000 nM	< 1 µM
Cc1noc(C)c1-c1cnc2c(I)cn(Cc3ncccn3)c2c1 [P-0319, 4-[3-iodo-1-(pyrimidin-2-ylmethyl)pyrrolo[3,2-b]pyridin-6-yl]-3,5-dimethyl-isoxazole]	< 1 µM	< 1 µM	< 10000 nM	< 1 µM
Cc1noc(C)c1-c1cnc2c(-c3cnn(CCN4CCOCC4)c3)cn(CC3CCC(F)(F)CC3)c2c1 [P-0296, 4-[2-[4-[1-[(4,4-difluorocyclohexyl)methyl]-6-(3,5-dimethylisoxazol-4-yl)pyrrolo[3,2-b]pyridin-3-yl]pyrazol-1-yl]ethyl]morpholine]	< 1 µM	< 1 µM	< 10000 nM	< 1 µM
COC(=O)c1ccc(-c2cn(CC3CCC(F)(F)CC3)c3cc(-c4c(C)noc4C)cnc23)cc1 [P-0330, methyl 4-[1-[(4,4-difluorocyclohexyl)methyl]-6-(3,5-dimethylisoxazol-4-yl)pyrrolo[3,2-b]pyridin-3-yl]benzoate]	< 1 µM	< 1 µM	< 10000 nM	< 1 µM
Cc1noc(C)c1-c1cnc2c(-c3cnn(C(F)F)c3)cn(C(CC#N)C3CCOCC3)c2c1 (centres unmarked) [P-0314, 3-[3-[1-(difluoromethyl)pyrazol-4-yl]-6-(3,5-dimethylisoxazol-4-yl)pyrrolo[3,2-b]pyridin-1-yl]-3-tetrahydropyran-4-yl-propanenitrile]	< 1 µM	< 1 µM	< 10000 nM	< 1 µM
Cc1n[nH]c(C)c1-c1cnc2ccn(CC3CCC(F)(F)CC3)c2c1 [P-0285, l-[(4,4-difluorocyclohexyl)methyl]-6-(3,5-dimethyl-1H-pyrazol-4-yl)pyrrolo[3,2-b]pyridine]	1 to 10 µM	10 to 200 µM	< 10000 nM	1 to 10 µM
Cc1noc(C)c1-c1cnc2c(-c3cnc(N)cn3)cn(C(C)c3ccccc3)c2c1 (centres unmarked) [P-0279, 5-[6-(3,5-dimethylisoxazol-4-yl)-1-(1-phenylethyl)pyrrolo[3,2-b]pyridin-3-yl]pyrazin-2-amine]	< 1 µM	< 1 µM	< 10000 nM	< 1 µM
Cc1noc(C)c1-c1cnc2c(Cl)cn(C(CC#N)C3CCCC3)c2c1 (centres unmarked) [P-0290, 3-[3-chloro-6-(3,5-dimethylisoxazol-4-yl)pyrrolo[3,2-b]pyridin-1-yl]-3-cyclopentyl-propanenitrile]	< 1 µM	< 1 µM	< 10000 nM	< 1 µM
COc1ccc(-c2cn(C(C)c3ccccc3)c3cc(-c4c(C)noc4C)cnc23)cn1 (centres unmarked) [P-0271, 4-[3-(6-methoxy-3-pyridyl)-1-(1-phenylethyl)pyrrolo[3,2-b]pyridin-6-yl]-3,5-dimethyl-isoxazole]	< 1 µM	< 1 µM	< 10000 nM	< 1 µM
Cc1noc(N)c1-c1cnc2ccn(CC3CCC(F)(F)CC3)c2c1 [P-0328, 4-[1-[(4,4-difluorocyclohexyl)methyl]pyrrolo[3,2-b]pyridin-6-yl]-3-methyl-isoxazol-5-amine]	1 to 10 µM	< 1 µM	< 10000 nM	< 1 µM
Cc1noc(C)c1-c1cnc2c(-c3cccnc3)cn(C(C)c3ccccc3)c2c1 (centres unmarked) [P-0267]	< 1 µM	< 1 µM	< 10000 nM	< 1 µM
Cc1noc(C)c1-c1cnc2c(-c3cnn(Cc4ccccc4)c3)cn(CC3CCC(F)(F)CC3)c2c1 [P-0299, 4-[3-(1-benzylpyrazol-4-yl)-1-[(4,4-difluorocyclohexyl)methyl]pyrrolo[3,2-b]pyridin-6-yl]-3,5-dimethyl-isoxazole]	< 1 µM	< 1 µM	< 10000 nM	< 1 µM
Cc1nnn(C)c1-c1cnc2c(-c3cnn(C)c3)cn(CC3CCC(F)(F)CC3)c2c1 [P-0310, 1-[(4,4-difluorocyclohexyl)methyl]-6-(3,5-dimethyltriazol-4-yl)-3-(1-methylpyrazol-4-yl)pyrrolo[3,2-b]pyridine]	< 1 µM	< 1 µM	< 10000 nM	< 1 µM
Cc1nnc(CCl)n1-c1cnc2[nH]ccc2c1 [P-0322, 5-[3-(chloromethyl)-5-methyl-1,2,4-triazol-4-yl]-1H-pyrrolo[2,3-b]pyridine]	1 to 10 µM	10 to 200 µM	< 10000 nM	10 to 200 µM
Cc1nnn(C)c1-c1cnc2c(-c3cnn(CC(F)(F)F)c3)cn(CC3CCC(F)(F)CC3)c2c1 [P-0311, 1-[(4,4-difluorocyclohexyl)methyl]-6-(3,5-dimethyltriazol-4-yl)-3-[1-(2,2,2-trifluoroethyl)pyrazol-4-yl]pyrrolo[3,2-b]pyridine]	< 1 µM	1 to 10 µM	< 10000 nM	< 1 µM
Cc1noc(C)c1-c1cnc2c(-c3ccc(C(=O)O)cc3)cn(C(C)c3ccccc3)c2c1 (centres unmarked) [P-0273, 4-[6-(3,5-dimethylisoxazol-4-yl)-1-(1-phenylethyl)pyrrolo[3,2-b]pyridin-3-yl]benzoic acid]	< 1 µM	< 1 µM	< 10000 nM	< 1 µM
COc1ccc(-c2cnc3ccn(CC4CCC(F)(F)CC4)c3c2)cn1 [P-0312, 1-((4,4-difluorocyclohexyl)methyl]-6-(6-methoxy-3-pyridyl)pyrrolo[3,2-b]pyridine]	10 to 200 µM	10 to 200 µM	< 10000 nM	1 to 10 µM
Cc1noc(C)c1-c1cnc2c(-c3cnn(CC(F)(F)F)c3)cn(C(CC#N)C3CC3)c2c1 (centres unmarked) [P-0315, 3-cyclopropyl-3-[6-(3,5-dimethylisoxazol-4-yl)-3-[1-(2,2,2-trifluoroethyl)pyrazol-4-yl]pyrrolo[3,2-b]pyridin-1-yl]propanenitrile]	< 1 µM	< 1 µM	< 10000 nM	< 1 µM
Cc1noc(C)c1-c1cnc2c(-c3cnn(CCC#N)c3)cn(CC3CCC(F)(F)CC3)c2c1 [P-0298, 3-[4-[1-[(4,4-difluorocyclohexyl)methyl]-6-(3,5-dimethylisoxazol-4-yl)pyrrolo[3,2-b]pyridin-3-yl]pyrazol-1-yl]propanenitrile]	< 1 µM	< 1 µM	< 10000 nM	< 1 µM
